How the values were obtained:
[1] = test system: MCF7 (breast cancer); test: NCI-60 SRB cytotoxicity screen; type: cell-based; settings: Homo sapiens; MCF7, single dose 10 μM; read-out: growth inhibition (GI%)
[2] = test system: EKVX (non-small cell lung cancer); test: NCI-60 SRB cytotoxicity screen; type: cell-based; settings: Homo sapiens, single dose 10 μM, read-out: growth inhibition (GI%)
[3] = test system: SK-MEL-28 (melanoma); test: NCI-60 SRB cytotoxicity screen; type: cell-based; settings: Homo sapiens; SK-MEL-28, single dose 10 μM; read-out: growth inhibition (GI%)
[4] = test system: ACHN (renal cancer); test: NCI-60 SRB cytotoxicity screen; type: cell-based; settings: Homo sapiens, single dose 10 μM, read-out: growth inhibition (GI%)
[5] = test system: MOLT-4 (leukemia); test: NCI-60 SRB cytotoxicity screen; type: cell-based; settings: Homo sapiens; MOLT-4, single dose 10 μM; read-out: growth inhibition (GI%)
[6] = test system: SF-539 (CNS cancer); test: NCI-60 SRB cytotoxicity screen; type: cell-based; settings: Homo sapiens; SF-539, single dose 10 μM; read-out: growth inhibition (GI%)
[7] = test system: SK-OV-3 (ovarian cancer); test: NCI-60 SRB cytotoxicity screen; type: cell-based; settings: Homo sapiens; SK-OV-3, single dose 10 μM; read-out: growth inhibition (GI%)
[8] = test system: MALME-3M (melanoma); test: NCI-60 SRB cytotoxicity screen; type: cell-based; settings: Homo sapiens, single dose 10 μM, read-out: growth inhibition (GI%)
[9] = test system: IGROV1 (ovarian cancer); test: NCI-60 SRB cytotoxicity screen; type: cell-based; settings: Homo sapiens, IGROV-1; IGROV1, single dose 10 μM; read-out: growth inhibition (GI%)
[10] = test system: UACC-62 (melanoma); test: NCI-60 SRB cytotoxicity screen; type: cell-based; settings: Homo sapiens; UACC-62, single dose 10 μM; read-out: growth inhibition (GI%)
[11] = test system: RPMI-8226 (leukemia); test: NCI-60 SRB cytotoxicity screen; type: cell-based; settings: Homo sapiens; RPMI-8226, single dose 10 μM; read-out: growth inhibition (GI%)
[12] = test system: NCI/ADR-RES (ovarian cancer); test: NCI-60 SRB cytotoxicity screen; type: cell-based; settings: Homo sapiens, single dose 10 μM, read-out: growth inhibition (GI%)
[13] = test system: HT29 (colon cancer); test: NCI-60 SRB cytotoxicity screen; type: cell-based; settings: Homo sapiens, HT-29; HT29, single dose 10 μM; read-out: growth inhibition (GI%)
[14] = test system: NCI-H226 (non-small cell lung cancer); test: NCI-60 SRB cytotoxicity screen; type: cell-based; settings: Homo sapiens; NCI-H226, single dose 10 μM; read-out: growth inhibition (GI%)
[15] = test system: UACC-257 (melanoma); test: NCI-60 SRB cytotoxicity screen; type: cell-based; settings: Homo sapiens; UACC-257, single dose 10 μM; read-out: growth inhibition (GI%)
[16] = test system: CCRF-CEM (leukemia); test: NCI-60 SRB cytotoxicity screen; type: cell-based; settings: Homo sapiens, single dose 10 μM, read-out: growth inhibition (GI%)
[17] = test system: HOP-62 (non-small cell lung cancer); test: NCI-60 SRB cytotoxicity screen; type: cell-based; settings: Homo sapiens; HOP-62, single dose 10 μM; read-out: growth inhibition (GI%)
[18] = test system: NCI-H522 (non-small cell lung cancer); test: NCI-60 SRB cytotoxicity screen; type: cell-based; settings: Homo sapiens; NCI-H522, single dose 10 μM; read-out: growth inhibition (GI%)
[19] = test system: UO-31 (renal cancer); test: NCI-60 SRB cytotoxicity screen; type: cell-based; settings: Homo sapiens; UO-31, single dose 10 μM; read-out: growth inhibition (GI%)
[20] = test system: NCI-H23 (non-small cell lung cancer); test: NCI-60 SRB cytotoxicity screen; type: cell-based; settings: Homo sapiens; NCI-H23, single dose 10 μM; read-out: growth inhibition (GI%)
[21] = test system: SF-295 (CNS cancer); test: NCI-60 SRB cytotoxicity screen; type: cell-based; settings: Homo sapiens; SF-295, single dose 10 μM; read-out: growth inhibition (GI%)
[22] = test system: HCT-15 (colon cancer); test: NCI-60 SRB cytotoxicity screen; type: cell-based; settings: Homo sapiens; HCT-15, single dose 10 μM; read-out: growth inhibition (GI%)
[23] = test system: BT-549 (breast cancer); test: NCI-60 SRB cytotoxicity screen; type: cell-based; settings: Homo sapiens; BT-549, single dose 10 μM; read-out: growth inhibition (GI%)
[24] = test system: PC-3 (prostate cancer); test: NCI-60 SRB cytotoxicity screen; type: cell-based; settings: PC-3, single dose 10 μM; read-out: growth inhibition (GI%)
[25] = test system: A549/ATCC (non-small cell lung cancer); test: NCI-60 SRB cytotoxicity screen; type: cell-based; settings: Homo sapiens, single dose 10 μM, read-out: growth inhibition (GI%)
[26] = test system: T-47D (breast cancer); test: NCI-60 SRB cytotoxicity screen; type: cell-based; settings: Homo sapiens, T47D, single dose 10 μM, read-out: growth inhibition (GI%)
[27] = test system: HS 578T (breast cancer); test: NCI-60 SRB cytotoxicity screen; type: cell-based; settings: Homo sapiens, single dose 10 μM, read-out: growth inhibition (GI%)
[28] = test system: K-562 (leukemia); test: NCI-60 SRB cytotoxicity screen; type: cell-based; settings: Homo sapiens; K-652 [sic], single dose 10 μM; read-out: growth inhibition (GI%)
[29] = test system: MDA-MB-231/ATCC (breast cancer); test: NCI-60 SRB cytotoxicity screen; type: cell-based; settings: Homo sapiens, MDA-MB-231, read-out: growth inhibition (GI%);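 also: growth inhibition in percent at a single 10 µM dose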
[30] = test system: HL-60(TB) (leukemia); test: NCI-60 SRB cytotoxicity screen; type: cell-based; settings: Homo sapiens, single dose 10 μM, read-out: growth inhibition (GI%)
[31] = test system: 786-0 (renal cancer); test: NCI-60 SRB cytotoxicity screen; type: cell-based; settings: Homo sapiens; 786-0, single dose 10 μM; read-out: growth inhibition (GI%)
[32] = test system: A498 (renal cancer); test: NCI-60 SRB cytotoxicity screen; type: cell-based; settings: Homo sapiens; A498, single dose 10 μM; read-out: growth inhibition (GI%)
[33] = test system: KM12 (colon cancer); test: NCI-60 SRB cytotoxicity screen; type: cell-based; settings: Homo sapiens; KM12, single dose 10 μM; read-out: growth inhibition (GI%)
[34] = test system: NCI-H460 (non-small cell lung cancer); test: NCI-60 SRB cytotoxicity screen; type: cell-based; settings: Homo sapiens; NCI-H460, single dose 10 μM; read-out: growth inhibition (GI%)
[35] = test system: SNB-75 (CNS cancer); test: NCI-60 SRB cytotoxicity screen; type: cell-based; settings: Homo sapiens, SNB-75, SNB-75, single dose 10 μM; read-out: growth inhibition (GI%)
[36] = test system: OVCAR-8 (ovarian cancer); test: NCI-60 SRB cytotoxicity screen; type: cell-based; settings: Homo sapiens; OVCAR-8, single dose 10 μM; read-out: growth inhibition (GI%)

Compound | inhibition at 10 µM [1] | inhibition at 10 µM [2] | inhibition at 10 µM [3] | inhibition at 10 µM [4] | inhibition at 10 µM [5] | inhibition at 10 µM [6] | inhibition at 10 µM [7] | inhibition at 10 µM [8] | inhibition at 10 µM [9] | inhibition at 10 µM [10] | inhibition at 10 µM [11] | inhibition at 10 µM [12] | inhibition at 10 µM [13] | inhibition at 10 µM [14] | inhibition at 10 µM [15] | inhibition at 10 µM [16] | inhibition at 10 µM [17] | inhibition at 10 µM [18] | inhibition at 10 µM [19] | inhibition at 10 µM [20] | further results
CCc1cccc2cc(C3C=C(c4ccc(F)cc4)NC(=S)N3)c(Cl)nc12 (stereo not shown) [Compound 6d, 4-(2-Chloro-8-ethylquinolin-3-yl)-6-(4-fluorophenyl)-3,4-dihydropyrimidine-2(1H)-thione] | 24.6% | < 10% | < 10% | < 10% | 48.8% | < 10% | < 10% | < 10% | < 10% | 14.2% | 19.3% | 17% | 28.3% | 21.7% | < 10% | < 10% | 15.2% | 25% | 49.5% | 11.8% | melting point: 220 to 222 °C; inhibition at 10 µM [21]: < 10%; inhibition at 10 µM [22]: 26.2%; inhibition at 10 µM [23]: < 10%; inhibition at 10 µM [24]: 22%; inhibition at 10 µM [25]: < 10%; inhibition at 10 µM [26]: 23.9%; inhibition at 10 µM [27]: < 10%; inhibition at 10 µM [28]: 27.6%; inhibition at 10 µM [29]: < 10%; inhibition at 10 µM [30]: < 10%; inhibition at 10 µM [31]: < 10%; inhibition at 10 µM [32]: < 10%; inhibition at 10 µM [33]: 13.2%; inhibition at 10 µM [34]: < 10%; inhibition at 10 µM [35]: < 10%; inhibition at 10 µM [36]: < 10%
CCc1cccc2cc(-c3cc(-c4ccc(F)cc4)[nH]c(=S)c3C#N)c(Cl)nc12 [Compound 5d, 4-(2-Chloro-8-ethylquinolin-3-yl)-6-(4-fluorophenyl)-2-thioxo-1,2-dihydropyridine-3-carbonitrile] | 40.4% | 19.6% | < 10% | < 10% | 26.8% | < 10% | 20.9% | < 10% | 28.6% | 25.7% | 23% | < 10% | < 10% | 25.9% | < 10% | < 10% | < 10% | 11.8% | 40.1% | 16.4% | melting point: 235 to 237 °C; inhibition at 10 µM [21]: 12.3%; inhibition at 10 µM [22]: 14.8%; inhibition at 10 µM [23]: 12.2%; inhibition at 10 µM [24]: 4.57%; inhibition at 10 µM [25]: < 10%; inhibition at 10 µM [26]: 21.1%; inhibition at 10 µM [27]: 18.2%; inhibition at 10 µM [28]: 29.3%; inhibition at 10 µM [29]: 31.2%; inhibition at 10 µM [30]: < 10%; inhibition at 10 µM [31]: < 10%; inhibition at 10 µM [32]: < 10%; inhibition at 10 µM [33]: < 10%; inhibition at 10 µM [34]: < 10%; inhibition at 10 µM [35]: 39.1%; inhibition at 10 µM [36]: < 10%
CCc1cccc2cc(C=CC(=O)c3ccc(F)cc3)c(Cl)nc12 [Compound 3d, 3-(2-Chloro-8-ethylquinolin-3-yl)-1-(4-fluorophenyl)prop-2-en-1-one] | < 10% | < 10% | < 10% | < 10% | < 10% | 11% | < 10% | < 10% | < 10% | < 10% | < 10% | < 10% | < 10% | < 10% | < 10% | < 10% | < 10% | < 10% | < 10% | < 10% | melting point: 215 to 217 °C; inhibition at 10 µM [21]: < 10%; inhibition at 10 µM [22]: < 10%; inhibition at 10 µM [23]: < 10%; inhibition at 10 µM [24]: < 10%; inhibition at 10 µM [25]: < 10%; inhibition at 10 µM [26]: < 10%; inhibition at 10 µM [27]: < 10%; inhibition at 10 µM [28]: < 10%; inhibition at 10 µM [29]: < 10%; inhibition at 10 µM [30]: < 10%; inhibition at 10 µM [31]: < 10%; inhibition at 10 µM [32]: < 10%; inhibition at 10 µM [33]: < 10%; inhibition at 10 µM [34]: < 10%; inhibition at 10 µM [35]: < 10%; inhibition at 10 µM [36]: < 10%
CCc1cccc2cc(C=CC(=O)c3ccc(Br)cc3)c(Cl)nc12 [Compound 3e, 1-(4-Bromophenyl)-3-(2-chloro-8-ethylquinolin-3-yl)prop-2-en-1-one] | < 10% | < 10% | < 10% | < 10% | < 10% | < 10% | < 10% | < 10% | < 10% | < 10% | < 10% | < 10% | < 10% | < 10% | < 10% | < 10% | < 10% | < 10% | < 10% | < 10% | melting point: 210 to 212 °C; inhibition at 10 µM [21]: < 10%; inhibition at 10 µM [22]: < 10%; inhibition at 10 µM [23]: < 10%; inhibition at 10 µM [24]: < 10%; inhibition at 10 µM [25]: < 10%; inhibition at 10 µM [26]: < 10%; inhibition at 10 µM [27]: < 10%; inhibition at 10 µM [28]: < 10%; inhibition at 10 µM [29]: < 10%; inhibition at 10 µM [30]: < 10%; inhibition at 10 µM [31]: < 10%; inhibition at 10 µM [32]: < 10%; inhibition at 10 µM [33]: < 10%; inhibition at 10 µM [34]: < 10%; inhibition at 10 µM [35]: < 10%; inhibition at 10 µM [36]: < 10%

Reference: publication PMC11240139, “Exploring the antitumor potential of novel quinoline derivatives via tubulin polymerization inhibition in breast cancer; design, synthesis and molecular docking” (RSC Advances, 2024)
